# Results published in patent US20180188224A1, “METHOD FOR CONSTRUCTING A SENSORY SPACE” (CENTRE SCIENTIFIQUE ET TECHNIQUE DU BATIMENT (CSTB), priority 2015, published 2018).
# Values joined by “and” are separate entries in the source; they are usually repeats but may differ in a detail not shown here. Equal values may be shown once.
# Assays:
# Format in all cases: in vivo, human
# [1] = tested on: four non-smoking volunteers (2 men and 2 women); test: Taste identification questionnaire, trained panel (count of 6 repetitions per subject in which the stimulus was given each taste label; level of recognition %); conditions: for Level of Recognition %: Neutral / Level of Recognition %: Salty / Level of Recognition %: Sour / Level of Recognition %: Sweet: four subjects
# [2] = tested on: four non-smoking volunteers (2 men and 2 women); test: Taste intensity score, 11-point scale (0 not intense to 10 very intense); conditions: concentration 4; averaged over 4 subjects, 6 repetitions each
# Protocol: In this test, four non-smoking volunteers (2 men and 2 women) were chosen from 12 people for their performance in taste recognition. Their mean age was 32 years, ranging from 24 to 40 years. […] These four people were trained for several months to recognize and detect the four basic tastes, and also regarding the procedures of sensory and physiological analysis.
# The four basic tastes (sweet, salty, sour and bitter) were used. The solutions were prepared with citric acid for the sour taste, caffeine for the bitter taste, sodium chloride for the salty taste and sucrose for the sweet taste (all purchased from Sigma Aldrich, France) in Evian water. Evian water was also used as control and blank. Each taste was prepared with the four concentrations mentioned in table 1.
# The amount of solution to be tested was standardized at 10 ml. In order to impregnate the whole of the oral cavity, the subjects kept the solution in their mouth for 5 s before swallowing it.
# The sessions were individual and the subjects were asked not to eat or drink anything for at least 1 h before the test. They arrived 15 min before the start of the session in order to acclimatize to the environmental conditions, in particular the temperature of the room (kept constant at 23° C.) and to be resting seated on a comfortable chair. The 16 solutions for testing and two additional samples of water containing solely Evian water, added to the references, were presented monadically following a test order determined from a “balanced incomplete block design”. During a session, 9 samples out of 18 were presented to minimize sensory fatigue. In addition, a sample of Evian was always tested as a “blank” sample in order to avoid the first-order effect (Lawless, H. T. & Heymann, H., 2010, Sensory evaluation of food: Principles and practices. Springer, New York) and was excluded from the analysis. A light signal was sent to give the instruction to test the sample. When the disturbance to the nervous system returned to its baseline level (after approximately 1 min), a second light signal indicated to the subjects that they should complete a questionnaire regarding the stimulus tested previously. The first part of the questionnaire was linked to the identification of the taste (i.e. determining the quality of the taste); the subjects had to choose between five labels: sweet, salty, sour, bitter or neutral. They then had to assign a taste intensity score on an 11-point scale (from 0 “not intense” (i.e. taste of Evian only) to 10 “very intense”) and finally to give a hedonic score on an 11-point scale (from 0 “very unpleasant” to 10 “very pleasant”, 5 being “neutral”).
# This procedure was repeated for each of the 9 stimuli. A session lasted approximately 45 min including a debriefing at the end of the test to ensure understanding of the sense of the signal variations. The experiment was repeated 12 times per subject, meaning that the data are composed of 6 data sets per subject and per product and 12 data sets for the Evian product per subject. Thus, the database consists of 432 samples.
# The effect of the taste on the hedonic and intensity scores was analyzed by an analysis of variance (ANOVA) including the product effect, the subject effect and the product-subject interaction. The subject effect was fixed because there were only 4 subjects and the results could only be applied to a particular schema. The differences were considered to be significant at a level of 0.05.
# [3] = tested on: four non-smoking volunteers (2 men and 2 women); test: Hedonic score, 11-point scale (0 very unpleasant to 10 very pleasant, 5 neutral); conditions: each of the NaCl concentrations (one value given)
compound,measurement,setting,value
"[Cl-].[Na+] [NaCl, sodium chloride]",Individual recognition score: Neutral,"[1]; Subject 1, dilution 1",0
same,Individual recognition score: Salty,"[1]; Subject 1, dilution 1",6
same,Individual recognition score: Sour,"[1]; Subject 1, dilution 1",0
same,Individual recognition score: Sweet,"[1]; Subject 1, dilution 1",0
same,Individual recognition score: Neutral,"[1]; Subject 1, dilution 2",0
same,Individual recognition score: Salty,"[1]; Subject 1, dilution 2",6
same,Individual recognition score: Sour,"[1]; Subject 1, dilution 2",0
same,Individual recognition score: Sweet,"[1]; Subject 1, dilution 2",0
same,Individual recognition score: Neutral,"[1]; Subject 1, dilution 3",0
same,Individual recognition score: Salty,"[1]; Subject 1, dilution 3",6
same,Individual recognition score: Sour,"[1]; Subject 1, dilution 3",0
same,Individual recognition score: Sweet,"[1]; Subject 1, dilution 3",0
same,Individual recognition score: Neutral,"[1]; Subject 1, dilution 4",0
same,Individual recognition score: Salty,"[1]; Subject 1, dilution 4",6
same,Individual recognition score: Sour,"[1]; Subject 1, dilution 4",0
same,Individual recognition score: Sweet,"[1]; Subject 1, dilution 4",0
same,Individual recognition score: Neutral,"[1]; Subject 2, dilution 1",0
same,Individual recognition score: Salty,"[1]; Subject 2, dilution 1",6
same,Individual recognition score: Sour,"[1]; Subject 2, dilution 1",0
same,Individual recognition score: Sweet,"[1]; Subject 2, dilution 1",0
same,Individual recognition score: Neutral,"[1]; Subject 2, dilution 2",0
same,Individual recognition score: Salty,"[1]; Subject 2, dilution 2",6
same,Individual recognition score: Sour,"[1]; Subject 2, dilution 2",0
same,Individual recognition score: Sweet,"[1]; Subject 2, dilution 2",0
same,Individual recognition score: Neutral,"[1]; Subject 2, dilution 3",0
same,Individual recognition score: Salty,"[1]; Subject 2, dilution 3",6
same,Individual recognition score: Sour,"[1]; Subject 2, dilution 3",0
same,Individual recognition score: Sweet,"[1]; Subject 2, dilution 3",0
same,Individual recognition score: Neutral,"[1]; Subject 2, dilution 4",0
same,Individual recognition score: Salty,"[1]; Subject 2, dilution 4",6
same,Individual recognition score: Sour,"[1]; Subject 2, dilution 4",0
same,Individual recognition score: Sweet,"[1]; Subject 2, dilution 4",0
same,Individual recognition score: Neutral,"[1]; Subject 3, dilution 1",0
same,Individual recognition score: Salty,"[1]; Subject 3, dilution 1",6
same,Individual recognition score: Sour,"[1]; Subject 3, dilution 1",0
same,Individual recognition score: Sweet,"[1]; Subject 3, dilution 1",0
same,Individual recognition score: Neutral,"[1]; Subject 3, dilution 2",0
same,Individual recognition score: Salty,"[1]; Subject 3, dilution 2",6
same,Individual recognition score: Sour,"[1]; Subject 3, dilution 2",0
same,Individual recognition score: Sweet,"[1]; Subject 3, dilution 2",0
same,Individual recognition score: Neutral,"[1]; Subject 3, dilution 3",0
same,Individual recognition score: Salty,"[1]; Subject 3, dilution 3",6
same,Individual recognition score: Sour,"[1]; Subject 3, dilution 3",0
same,Individual recognition score: Sweet,"[1]; Subject 3, dilution 3",0
same,Individual recognition score: Neutral,"[1]; Subject 3, dilution 4",0
same,Individual recognition score: Salty,"[1]; Subject 3, dilution 4",6
same,Individual recognition score: Sour,"[1]; Subject 3, dilution 4",0
same,Individual recognition score: Sweet,"[1]; Subject 3, dilution 4",0
same,Individual recognition score: Neutral,"[1]; Subject 4, dilution 1",0
same,Individual recognition score: Salty,"[1]; Subject 4, dilution 1",5
same,Individual recognition score: Sour,"[1]; Subject 4, dilution 1",0
same,Individual recognition score: Sweet,"[1]; Subject 4, dilution 1",0
same,Individual recognition score: Neutral,"[1]; Subject 4, dilution 2",0
same,Individual recognition score: Salty,"[1]; Subject 4, dilution 2",6
same,Individual recognition score: Sour,"[1]; Subject 4, dilution 2",0
same,Individual recognition score: Sweet,"[1]; Subject 4, dilution 2",0
same,Individual recognition score: Neutral,"[1]; Subject 4, dilution 3",0
same,Individual recognition score: Salty,"[1]; Subject 4, dilution 3",6
same,Individual recognition score: Sour,"[1]; Subject 4, dilution 3",0
same,Individual recognition score: Sweet,"[1]; Subject 4, dilution 3",0
same,Individual recognition score: Neutral,"[1]; Subject 4, dilution 4",0
same,Individual recognition score: Salty,"[1]; Subject 4, dilution 4",6
same,Individual recognition score: Sour,"[1]; Subject 4, dilution 4",0
same,Individual recognition score: Sweet,"[1]; Subject 4, dilution 4",0
same,Level of Recognition %: Neutral,[1]; dilution 1,0%
same,Level of Recognition %: Salty,[1]; dilution 1,96%
same,Level of Recognition %: Sour,[1]; dilution 1,0%
same,Level of Recognition %: Sweet,[1]; dilution 1,0%
same,Level of Recognition %: Neutral,[1]; dilution 2,0%
same,Level of Recognition %: Salty,[1]; dilution 2,100%
same,Level of Recognition %: Sour,[1]; dilution 2,0%
same,Level of Recognition %: Sweet,[1]; dilution 2,0%
same,Level of Recognition %: Neutral,[1]; dilution 3,0%
same,Level of Recognition %: Salty,[1]; dilution 3,100%
same,Level of Recognition %: Sour,[1]; dilution 3,0%
same,Level of Recognition %: Sweet,[1]; dilution 3,0%
same,Level of Recognition %: Neutral,[1]; dilution 4,0%
same,Level of Recognition %: Salty,[1]; dilution 4,100%
same,Level of Recognition %: Sour,[1]; dilution 4,0%
same,Level of Recognition %: Sweet,[1]; dilution 4,0%
same,Individual recognition score: Bitter,"[1]; human, in vivo",0 (15×) and 1
same,Level of Recognition %: Bitter,"[1]; human, in vivo",4% and 0%
same,intensity score,[2],8.6±1.0
same,hedonic score,[3],1.3±0.9
